From US6117661A, “Mutant mono-oxygenase cytochrome P450cam” (BG plc, priority 1995, dated 2000)
Where two headings read alike, the source gives them in different places.

Key:
Wild type P450cam [1] = molecular target: T1, Wild type P450cam (Pseudomonas putida, UniProt P00183); type: binding, P. putida
P-450cam mutant Y96A = molecular target: T2, P-450cam mutant Y96A (Pseudomonas putida, UniProt P00183, Y97A); assay: Substrate binding constant Kapp, method of Sligar
T2 construct: made in house; host or cells: E. coli JM109, vector pRH1091
Text: (§1) Binding of potential substrates was investigated by spectroscopic methods. […] This haem spin-state shift is accompanied by an increase in the haem reduction potential which enables the physiological electron-transfer partner putidaredoxin to reduce P-450cam and initiate the catalytic hydroxylation cycle^26. The haem spin state shift is thus a qualitative indication of the likelihood of molecules shown in Tables 1 and 2 being oxidised by the wild-type and mutant P-450cam enzymes.
(§2) ^a Values are the average of two independent measurements using the
(§3) method of Sligar (S. G. Sligar, Biochemistry, 1976, 15, 5399-5406). The
(§4) value of Kapp is strongly dependent on the concentration of K^+
(§5) in the buffer. At [K^+ ] > 150 mM, Kapp for camphor is 0.6 μM
(§6) for both wildtype and Y96A. Data in this table were determined at [K^
(§7) ] = 70 mM in phosphate buffer, pH 7.4, in order to avoid # salting out o
(§8) substrates at higher ion concentrations.

Wild type P450cam [2] = molecular target: T1, Wild type P450cam; assay: Substrate binding constant Kapp, method of Sligar; parameters: made in house; host or cells: E. coli JM109, vector pRH1091
Text: as §1, §2, §3, §4, §5, §6, §7, §8

P450cam WT = molecular target: T3, P450cam WT (Pseudomonas putida, UniProt P00183); assay: Product distribution following oxidation of substrates (GC); type: biochemical, P. putida; settings: for Products (%) WT: label = product
T3 construct: reconstituted with putidaredoxin and putidaredoxin reductase
Description: (§9) A buffered solution (50 mM Tris.HCI, pH 7.4), typically 3 ml in volume, containing 10 uM putidaredoxin, 2 uM putidaredoxin reductase, 1 uM cytochrome P-450cam mono-oxygenase (wild-type or mutant), 200 mM KCI, 50 ug/ml bovine liver catalase (Sigma), and 1 mM target organic compound such as cyclohexylbenzene (added as a 0.1 M stock in ethanol) was preincubated at 30° C. for 5 minutes. The enzymatic reaction was initiated by adding NADH to a total concentration of 2 mM. Further four aliquots of NADH (to increase the NADH concentration by 1 mM each time) were added in intervals of 10 minutes, and 30 minutes into the incubation one aliquot of substrate (to increase the concentration by 1 mM) was also added. The reaction was quenched after 60 minutes by adding 0.5 ml chloroform and vortexing the mixture. The phases were separated by centrifugation (4000 g) at 4° C. The chloroform layer was analyzed by gas chromatography.
(§10) For many substrate compounds such as cyclohexylbenzene for which not all the P-450cam-mediated oxidation products are commercially available, the chloroform extracts are evaporated to dryness under a stream of nitrogen. The residues were extracted with hexane and the oxidation products separated by high performance liquid chromatography, eluting with a hexane/isopropanol gradient. The purified products were then identified by mass spectroscopy and particularly nuclear magnetic resonance spectroscopy.
(§11) The NADH concentration can be monitored at 340 nm and, in all cases, more substrates and NADH are added during the incubation.

[3] = molecular target: T4, P450cam active site mutant F87A-F96G-F193A (Pseudomonas putida, UniProt P00183, C335A/F194A/F88A/Y97G); type: biochemical, P. putida; settings: for Products (%) F87A-F96G-F193A: label = product
T4 construct: reconstituted with putidaredoxin and putidaredoxin reductase
Description: as §9, §10, §11

[4] = molecular target: T5, P450cam active site mutant Y96F (also C334A) (Pseudomonas putida, UniProt P00183, C335A/Y97F); type: biochemical, P. putida; settings: for Products(%) Y96F: label = product
T5 construct: reconstituted with putidaredoxin and putidaredoxin reductase
Description: as §9, §10, §11

[5] = molecular target: T6, P450cam active site mutant Y96V (also C334A) (Pseudomonas putida, UniProt P00183, C335A/Y97V); type: biochemical, P. putida; settings: for Products (%) Y96V: label = product
T6 construct: reconstituted with putidaredoxin and putidaredoxin reductase
Description: as §9, §10, §11

[6] = molecular target: T7, P450cam active site mutant Y96L (also C334A) (Pseudomonas putida, UniProt P00183, C335A/Y97L); type: biochemical, P. putida; settings: for Products (%) Y96L: label = product
T7 construct: reconstituted with putidaredoxin and putidaredoxin reductase
Description: as §9, §10, §11

[7] = molecular target: T8, P450cam active site mutant Y96A (also C334A) (Pseudomonas putida, UniProt P00183, C335A/Y97A); type: biochemical, P. putida; settings: for Products(%) Y96A: label = product
T8 construct: reconstituted with putidaredoxin and putidaredoxin reductase
Description: as §9, §10, §11

P450cam Mutant Y96A = P450cam Mutant Y96A (Pseudomonas putida, UniProt P00183, C335A/Y97A); type: binding, P. putida
[8] = Protein aggregation upon standing/storage; type: physicochemical
Text: The C334A mutation has the obvious benefit of removing unwanted protein dimerisation, thus ensuring the presence of a single species in solution at all times. In addition, we noted a completely unexpected benefit of this mutation. […] Aggregation will also occur during turnover, especially at the higher P-450cam concentrations required in any economically viable industrial application in, for example, synthesis of organic molecules. […] Thus, the C334A mutation has beneficial effects in protein handling, storage, and increased catalyst lifetime.

[9] = Protein dimerisation by anion exchange FPLC and gel filtration; type: physicochemical; settings: Resource Q FPLC and Superose 12 gel filtration; C334A even at high concentrations (0.1 mM range)
Text: We concluded that wild-type P-450cam underwent dimerisation by intermolecular S--S disulphide bond formation between the surface cysteine 334 on two protein molecules.

[10] = -- = no shift, nd = not determined

Question: With CC12CCC(CC1=O)C2(C)C (single isomer, unassigned) [camphor] as the molecule, how does the “haem spin-state conversion on substrate binding” value (Wild type P450cam [1]; Soret band 418 nm to 392 nm) read?
Answer: The value was “fully converted the haem to the 5-co-ordinated, high-spin form”.

Question: And the Kd (P-450cam mutant Y96A)?
Answer: Its Kd is 600 nM.

Question: And the Kd (Wild type P450cam [2])?
Answer: The Kd was 600 nM.

Question: Which “Products (%) WT” value (P450cam WT; substrate naphthalene) does the source give for Oc1cccc2ccccc12 [1-ol] here?
Answer: Its value is 100%.

Question: And the “Products (%) F87A-F96G-F193A” value ([3]; substrate naphthalene)?
Answer: Its value is 100%.

Question: And the “Products(%) Y96F” value ([4]; substrate naphthalene)?
Answer: The value was 100%.

Question: And the “Products (%) Y96V” value ([5]; substrate naphthalene)?
Answer: The value was 100%.

Question: What about the “Products (%) Y96L” value ([6]; substrate naphthalene) of the same molecule?
Answer: The value was 100%.

Question: And the “Products(%) Y96A” value ([7]; substrate naphthalene)?
Answer: Its value is 100%.

Question: With Oc1ccc2ccccc2c1 [2-ol] as the molecule, how does the “Products (%) WT” value (P450cam WT; substrate naphthalene) read?
Answer: The value was 0%.

Question: And the “Products (%) F87A-F96G-F193A” value ([3]; substrate naphthalene)?
Answer: Its value is 0%.

Question: What about the “Products(%) Y96F” value ([4]; substrate naphthalene) of the same molecule?
Answer: The value was 0%.

Question: What about the “Products (%) Y96V” value ([5]; substrate naphthalene) of the same molecule?
Answer: The value was 0%.

Question: And the “Products (%) Y96L” value ([6]; substrate naphthalene)?
Answer: The value was 0%.

Question: And the “Products(%) Y96A” value ([7]; substrate naphthalene)?
Answer: The value was 0%.

Question: With c1ccc2c(c1)-c1cccc3cccc-2c13 [Fluoranthene] as the molecule, how does the “Wild type Vs DTT” value (Wild type P450cam [1]) read?
Answer: Its value is 5.

Question: And the “Mutant Y96A Vs DTT” value (P450cam Mutant Y96A)?
Answer: The value was 10.

Question: And the “Mutant Y96A ΔSpin high/low” value (P450cam Mutant Y96A)?
Answer: The value was 20.

Question: What about the “Total products WT” value (P450cam WT; substrate fluoranthene) of the same molecule?
Answer: The value was 0 area/10^6.

Question: And the “Total products F87A-F96G-F193A” value ([3]; substrate fluoranthene)?
Answer: Its value is 0.2 area/10^6.

Question: What about the “Total products Y96A” value ([7]; substrate fluoranthene) of the same molecule?
Answer: Its value is 2.7 area/10^6.

Question: What does the source list for c1ccc2ccccc2c1 [Naphthalene]?
Answer: Mutant Y96A Vs DTT (P450cam Mutant Y96A): 20; Mutant Y96A ΔSpin high/low (P450cam Mutant Y96A; [10]): 15; Total products WT (P450cam WT; substrate naphthalene): 0.016 area/10^5; Total products F87A-F96G-F193A ([3]; substrate naphthalene): 0.1 area/10^5; Total products Y96F ([4]; substrate naphthalene): 2.4 area/10^5; Total products Y96V ([5]; substrate naphthalene): 1.4 area/10^5; Total products Y96L ([6]; substrate naphthalene): 0.7 area/10^5; Total products Y96A ([7]; substrate naphthalene): 1.1 area/10^5

Question: With c1ccc2c(c1)ccc1ccccc12 [Phenanthrene] as the molecule, how does the “Mutant Y96A Vs DTT” value (P450cam Mutant Y96A) read?
Answer: Its value is 20.

Question: And the “Mutant Y96A ΔSpin high/low” value (P450cam Mutant Y96A; [10])?
Answer: Its value is 20.

Question: And the “Total products WT” value (P450cam WT; substrate phenanthrene)?
Answer: Its value is 0.075 area/10^6.

Question: What about the “Total products F87A-F96G-F193A” value ([3]; substrate phenanthrene) of the same molecule?
Answer: The value was 0.065 area/10^6.

Question: What about the “Total products Y96F” value ([4]; substrate phenanthrene) of the same molecule?
Answer: The value was 4.5 area/10^6.

Question: And the “Total products Y96V” value ([5]; substrate phenanthrene)?
Answer: The value was 1.6 area/10^6.

Question: And the “Total products Y96L” value ([6]; substrate phenanthrene)?
Answer: Its value is 2.8 area/10^6.

Question: What about the “Total products Y96A” value ([7]; substrate phenanthrene) of the same molecule?
Answer: Its value is 7.0 area/10^6.

Question: What does the source list for c1cc2ccc3cccc4ccc(c1)c2c34 [Pyrene]?
Answer: Total products WT (P450cam WT; substrate pyrene): 0 area/10^6; Total products F87A-F96G-F193A ([3]; substrate pyrene): 0.02 area/10^6; Total products Y96F ([4]; substrate pyrene): 1.5 area/10^6; Total products Y96V ([5]; substrate pyrene): 1.6 area/10^6; Total products Y96L ([6]; substrate pyrene): 1.5 area/10^6; Total products Y96A ([7]; substrate pyrene): 1.2 area/10^6

B1: C148A: P-450cam surface mutant, cysteine 148 substituted to alanine (protein, UniProt P00183 2-415, looked up, variant C148A)
Camphor 5-monooxygenase: TTETIQSNANLAPLPPHVPEHLVFDFDMYNPSNLSAGVQEAWAVLQESNVPDLVWTRCNGGHWIATRGQLIREAYEDYRHFSSECPFIPREAGEAYDFIPTSMDPPEQRQFRALANQVVGMPVVDKLENRIQELACSLIESLRPQGQANFTEDYAEPFPIRIFMLLAGLPEEDIPHLKYLTDQMTRPDGSMTFAEAKEALYDYLIPIIEQRRQKPGTDAISIVANGQVNGRPITSDEAKRMCGLLLVGGLDTVVNFLSFSMEFLAKSPEHRQELIERPERIPAACEELLRRFSLVADGRILTSDYEFHGVQLKKGDQILLPQMLSGLDERENACPMHVDFSRQKVSHTTFGHGSHLCLGQHLARREIIVTLKEWLTRIPDFSIAPGAQIQHKSGIVSGVQALPLVWDPATTKAV
Question: For B1, which “dimerisation and aggregation upon storage” value ([8]; storage at 4° C., and even in 50% glycerol solutions at -20° C.) is on record?
Answer: The value was “dimerisation as well as aggregation”.

Question: What about the “presence of protein dimer” value [9] of the same molecule?
Answer: The value was “dimer was detected”.

B2: C334A: P-450cam surface mutant, cysteine 334 substituted to alanine (protein, UniProt P00183 2-415, looked up, variant C334A)
Camphor 5-monooxygenase: TTETIQSNANLAPLPPHVPEHLVFDFDMYNPSNLSAGVQEAWAVLQESNVPDLVWTRCNGGHWIATRGQLIREAYEDYRHFSSECPFIPREAGEAYDFIPTSMDPPEQRQFRALANQVVGMPVVDKLENRIQELACSLIESLRPQGQCNFTEDYAEPFPIRIFMLLAGLPEEDIPHLKYLTDQMTRPDGSMTFAEAKEALYDYLIPIIEQRRQKPGTDAISIVANGQVNGRPITSDEAKRMCGLLLVGGLDTVVNFLSFSMEFLAKSPEHRQELIERPERIPAACEELLRRFSLVADGRILTSDYEFHGVQLKKGDQILLPQMLSGLDERENAAPMHVDFSRQKVSHTTFGHGSHLCLGQHLARREIIVTLKEWLTRIPDFSIAPGAQIQHKSGIVSGVQALPLVWDPATTKAV
Question: Which results are given for B2?
Answer: aggregation ([8]; mM concentrations at room temperature over a period of three days): did not show any evidence of aggregation; presence of protein dimer [9]: no dimer was detected
